# In patent US20020091086A1, “Peptides that block viral infectivity and methods of use thereof” (priority 1999, published 2002):
# Read-outs that look alike come from different tables or passages of the source. Peptide text beside a SMILES is read from it.
# Experiments:
# [1] = tested on: HIV-1; conditions: H9 cells; for Day 10 RT HIV-1 (1:5): supernatant diluted 5-fold; for HIV-1 infection, result in words: summary of Experiments 1-5
# Excerpt: (§1) In this example, the methods that were used to analyze the ability of various tripeptides to inhibit HIV-1, HIV-2, and SIV replication are disclosed. In Experiments 1 and 2, approximately 200,000 H9 cells were infected with HIV-1, HIV-2 or SIV at 25 TCID50 to test the inhibitory effect of the following synthesized tripeptides LKA-NH2, ILK-NH2, GPQ-NH2, GHK-NH2, GKG-NH2, ACQ-NH2, CQG-NH2, ARV-NH2, KAR-NH2, HKA-NH2, GAT-NH2, KAL-NH2, and GPG-NH2. Accordingly, the H9 cells were resuspended with or without the different peptides (approximately 100 μM) in 1 ml of RPMI 1640 medium supplemented with 10% (v/v) heat-inactivated fetal bovine serum (FBS), penicillin (100 u/ml), and streptomycin (100 u/ml), all available through GIBCO, and Polybrene (2 μg/ml), available through Sigma. Thereafter, viruses were added at 25 TCID50 in a volume of 20-30μl. Cells were incubated with virus at 37° C. for 1 hr then pelleted at 170×g for 7 minutes. The cells were then washed three times in RPMI medium without peptides at room temperature and pelleted at 170×g for 7 minutes, as above. After the final wash, the cells were resuspended in RPMI culture medium containing the peptides in a 24-well plate (Costar corporation) and were kept at 37° C. in 5% CO2 with humidity.
# (§2) Culture supernatants were collected and analyzed when the medium was changed at 4, 7, 10, and 14 days post infection. To monitor the replication of virus, reverse transcriptase (RT) activity in the supernatants was assayed using a commercially available Lenti-RT activity kit. (Cavidi Tech, Uppsala, Sweden). The amount of RT was determined with the aid of a regression line of standards. The results are presented as absorbance values (OD) and higher absorbance indicates a higher protein concentration and greater viral infection. Syncytium formation was also monitored by microscopic examination.
# In Experiment 3, (Table 4), approximately 200,000 H9 cells were infected with HIV-1, HIV-2 or SIV at 25 TCID50 to test the inhibitory effect of different concentrations of peptides GPG-NH2, GKG-NH2 and CQG-NH2 and combinations of these peptides (the indicated concentration corresponds to the concentration of each tripeptide). As above, H9 cells were resuspended with or without the different peptides at varying concentrations in 1 ml of RPMI 1640 medium supplemented with 10% (v/v) heat-inactivated fetal bovine serum (FBS), penicillin (100 u/ml), and streptomycin (100 u/ml), and Polybrene (2 μg/ml). Thereafter, viruses were added at 25 TCID50 in a volume of 20-30 μl. Cells were incubated with the indicated virus at 37° C. for 1 hr then pelleted at 170×g for 7 minutes. The cells were then washed three times in RPMI medium without peptides at room temperature and pelleted at 170×g for 7 minutes, as above. After the final wash, the cells were resuspended in RPMI culture medium containing the peptides in a 24-well plate (Costar corporation) and kept at 37° C. in 5% CO2 with humidity.
# Culture supernatants were collected when the medium was changed at 4, 7, and 11 days post infection. As above, the replication of each virus was monitored by detecting reverse transcriptase (RT) activity in the supernatants using the Lenti-RT activity kit. (Cavidi Tech). The amount of RT was determined with the aid of a regression line of standards. The results are presented as absorbance values (OD) and higher absorbance indicates a higher protein concentration and greater viral infection.
# In Experiment 4, (Table 5) approximately 200,000 H9 cells were infected with HIV-1 at 25 TCID50 to test the inhibitory effect of different concentrations of peptides GPG-NH2, GKG-NH2 and CQG-NH2 and combinations of these peptides (the indicated concentration corresponds to the total concentration of tripeptide).
# [2] = tested on: HIV-2; experiment: HIV-2 infectivity assay in H9 cells, RT activity in supernatant; assay type: cell-based; conditions: for HIV-2 infection, result in words: summary of Experiments 1-3
# [3] = tested on: SIV; experiment: SIV infectivity assay in H9 cells, RT activity in supernatant; assay type: cell-based; conditions: for SIV infection, result in words: summary of Experiments 1-3
# [4] = tested on: HIV-1; conditions: 100 μM, H9 cells
# Excerpt: as §1, §2
# [5] = Experiment 3, 5 μM (of each tripeptide)
# [6] = Experiment 3, 20 μM (of each tripeptide)
# [7] = Experiment 4, 5 μM (total concentration of tripeptide)
# [8] = Experiment 4, 15 μM (total concentration of tripeptide)
molecule,measurement,setting,value
"NCCCC[C@H](NC(=O)CN)C(=O)NCC(N)=O [GKG-NH2, glycyl-lysyl-glycine amide] (H-Gly-Lys-Gly-NH2)",Day 7 RT HIV-1,"[1]; Experiment 1, 100 μM",0.080 OD
same,Day 10 RT HIV-1,"[1]; Experiment 1, 100 μM",0.074 OD
same,Day 7 RT HIV-1,"[1]; Experiment 2, 100 μM",0.145 OD
same,Day 10 RT HIV-1,"[1]; Experiment 2, 100 μM",0.345 OD
same,Day 7 RT HIV-1,[1]; [5],1.587 OD
same,Day 10 RT HIV-1,[1]; [5],1.683 OD
same,Day 7 RT HIV-1,[1]; [6],1.616 OD
same,Day 10 RT HIV-1,[1]; [6],2.036 OD
same,Day 7 RT HIV-1,"[1]; Experiment 3, 100 μM",0.823 OD
same,Day 10 RT HIV-1,"[1]; Experiment 3, 100 μM",1.520 OD
same,Day 7 RT HIV-1,[1]; [7],3.303 OD
same,Day 10 RT HIV-1 (1:5),[1]; [7],1.287 OD
same,Day 7 RT HIV-1,[1]; [8],3.551 OD
same,Day 10 RT HIV-1 (1:5),[1]; [8],1.530 OD
same,Day 7 RT HIV-1,"[1]; Experiment 4, 45 μM",3.126 OD
same,Day 10 RT HIV-1 (1:5),"[1]; Experiment 4, 45 μM",0.410 OD
same,"HIV-1 infection, result in words",[1],inhibited and/or prevented HIV-1 infection
same,Day 7 RT HIV-2,"[2]; Experiment 1, 100 μM",0.160 OD
same,Day 10 RT HIV-2,"[2]; Experiment 1, 100 μM",0.147 OD
same,Day 7 RT HIV-2,"[2]; Experiment 2, 100 μM",0.283 OD
same,Day 10 RT HIV-2,"[2]; Experiment 2, 100 μM",1.637 OD
same,Day 7 RT HIV-2,[2]; [5],1.769 OD
same,Day 10 RT HIV-2,[2]; [5],2.510 OD
same,Day 7 RT HIV-2,[2]; [6],1.759 OD
same,Day 10 RT HIV-2,[2]; [6],2.646 OD
same,Day 7 RT HIV-2,"[2]; Experiment 3, 100 μM",0.828 OD
same,Day 10 RT HIV-2,"[2]; Experiment 3, 100 μM",1.947 OD
same,"HIV-2 infection, result in words",[2],inhibit or prevent HIV-2 and SIV infection
same,Day 7 RT SIV,"[3]; Experiment 1, 100 μM",0.421 OD
same,Day 10 RT SIV,"[3]; Experiment 1, 100 μM",0.099 OD
same,Day 7 RT SIV,"[3]; Experiment 2, 100 μM",0.116 OD
same,Day 10 RT SIV,"[3]; Experiment 2, 100 μM",0.204 OD
same,Day 7 RT SIV,[3]; [5],0.271 OD
same,Day 10 RT SIV,[3]; [5],1.709 OD
same,Day 7 RT SIV,[3]; [6],1.531 OD
same,Day 10 RT SIV,[3]; [6],2.482 OD
same,Day 7 RT SIV,"[3]; Experiment 3, 100 μM",1.005 OD
same,Day 10 RT SIV,"[3]; Experiment 3, 100 μM",1.382 OD
same,"SIV infection, result in words",[3],inhibit or prevent HIV-2 and SIV infection
same,HIV-1 Syncytia,[4]; Experiment 1,neg
same,HIV-1 Syncytia,[4]; Experiment 2,neg
"NCC(=O)N1CCC[C@H]1C(=O)NCC(N)=O [GPG-NH2, glycyl-prolyl-glycine amide] (H-Gly-Pro-Gly-NH2)",Day 7 RT HIV-1,"[1]; Experiment 1, 100 μM",0.068 OD
same,Day 10 RT HIV-1,"[1]; Experiment 1, 100 μM",0.074 OD
same,Day 7 RT HIV-1,"[1]; Experiment 2, 100 μM",0.090 OD
same,Day 10 RT HIV-1,"[1]; Experiment 2, 100 μM",0.143 OD
same,Day 7 RT HIV-1,[1]; [5],1.527 OD
same,Day 10 RT HIV-1,[1]; [5],2.398 OD
same,Day 7 RT HIV-1,[1]; [6],0.239 OD
same,Day 10 RT HIV-1,[1]; [6],0.692 OD
same,Day 7 RT HIV-1,[1]; [7],2.970 OD
same,Day 10 RT HIV-1 (1:5),[1]; [7],1.107 OD
same,Day 7 RT HIV-1,[1]; [8],0.894 OD
same,Day 10 RT HIV-1 (1:5),[1]; [8],0.095 OD
same,Day 7 RT HIV-1,"[1]; Experiment 4, 45 μM",0.177 OD
same,Day 10 RT HIV-1 (1:5),"[1]; Experiment 4, 45 μM",0.034 OD
same,Day 7 RT HIV-1,"[1]; Experiment 4, 100 μM",0.150 OD
same,Day 10 RT HIV-1 (1:5),"[1]; Experiment 4, 100 μM",0.033 OD
same,"HIV-1 infection, result in words",[1],inhibited and/or prevented HIV-1 infection
same,Day 7 RT HIV-2,"[2]; Experiment 1, 100 μM",0.735 OD
same,Day 10 RT HIV-2,"[2]; Experiment 1, 100 μM",0.145 OD
same,Day 7 RT HIV-2,"[2]; Experiment 2, 100 μM",0.093 OD
same,Day 10 RT HIV-2,"[2]; Experiment 2, 100 μM",0.575 OD
same,Day 7 RT HIV-2,[2]; [5],1.735 OD
same,Day 10 RT HIV-2,[2]; [5],2.329 OD
same,Day 7 RT HIV-2,[2]; [6],0.252 OD
same,Day 10 RT HIV-2,[2]; [6],1.305 OD
same,"HIV-2 infection, result in words",[2],inhibit or prevent HIV-2 and SIV infection
same,Day 7 RT SIV,"[3]; Experiment 1, 100 μM",0.138 OD
same,Day 10 RT SIV,"[3]; Experiment 1, 100 μM",0.103 OD
same,Day 7 RT SIV,"[3]; Experiment 2, 100 μM",0.067 OD
same,Day 10 RT SIV,"[3]; Experiment 2, 100 μM",0.139 OD
same,Day 7 RT SIV,[3]; [5],0.753 OD
same,Day 10 RT SIV,[3]; [5],2.201 OD
same,Day 7 RT SIV,[3]; [6],0.197 OD
same,Day 10 RT SIV,[3]; [6],0.779 OD
same,"SIV infection, result in words",[3],inhibit or prevent HIV-2 and SIV infection
same,HIV-1 Syncytia,[4]; Experiment 1,neg
same,HIV-1 Syncytia,[4]; Experiment 2,neg
cystyl-glutaminyl-glycine amide [CQG-NH2],Day 7 RT HIV-1,"[1]; Experiment 1, 100 μM",0.091 OD
same,Day 10 RT HIV-1,"[1]; Experiment 1, 100 μM",0.108 OD
same,Day 7 RT HIV-1,"[1]; Experiment 2, 100 μM",0.143 OD
same,Day 10 RT HIV-1,"[1]; Experiment 2, 100 μM",1.546 OD
same,Day 7 RT HIV-1,[1]; [5],1.547 OD
same,Day 10 RT HIV-1,[1]; [5],2.028 OD
same,Day 7 RT HIV-1,[1]; [6],1.578 OD
same,Day 10 RT HIV-1,[1]; [6],1.484 OD
same,Day 7 RT HIV-1,"[1]; Experiment 3, 100 μM",1.520 OD
same,Day 10 RT HIV-1,"[1]; Experiment 3, 100 μM",2.014 OD
same,Day 7 RT HIV-1,[1]; [7],2.991 OD
same,Day 10 RT HIV-1 (1:5),[1]; [7],1.459 OD
same,Day 7 RT HIV-1,[1]; [8],2.726 OD
same,Day 10 RT HIV-1 (1:5),[1]; [8],1.413 OD
same,Day 7 RT HIV-1,"[1]; Experiment 4, 45 μM",3.124 OD
same,Day 10 RT HIV-1 (1:5),"[1]; Experiment 4, 45 μM",1.364 OD
same,"HIV-1 infection, result in words",[1],inhibited and/or prevented HIV-1 infection
same,Day 7 RT HIV-2,"[2]; Experiment 1, 100 μM",0.217 OD
same,Day 10 RT HIV-2,"[2]; Experiment 1, 100 μM",0.296 OD
same,Day 7 RT HIV-2,"[2]; Experiment 2, 100 μM",1.241 OD
same,Day 10 RT HIV-2,"[2]; Experiment 2, 100 μM",2.501 OD
same,Day 7 RT HIV-2,[2]; [5],1.760 OD
same,Day 10 RT HIV-2,[2]; [5],2.466 OD
same,Day 7 RT HIV-2,[2]; [6],1.748 OD
same,Day 10 RT HIV-2,[2]; [6],2.721 OD
same,Day 7 RT HIV-2,"[2]; Experiment 3, 100 μM",1.715 OD
same,Day 10 RT HIV-2,"[2]; Experiment 3, 100 μM",2.815 OD
same,"HIV-2 infection, result in words",[2],inhibit or prevent HIV-2 and SIV infection
same,Day 7 RT SIV,"[3]; Experiment 1, 100 μM",0.747 OD
same,Day 10 RT SIV,"[3]; Experiment 1, 100 μM",0.110 OD
same,Day 7 RT SIV,"[3]; Experiment 2, 100 μM",0.120 OD
same,Day 10 RT SIV,"[3]; Experiment 2, 100 μM",1.761 OD
same,Day 7 RT SIV,[3]; [5],1.159 OD
same,Day 10 RT SIV,[3]; [5],2.821 OD
same,Day 7 RT SIV,[3]; [6],0.615 OD
same,Day 10 RT SIV,[3]; [6],2.158 OD
same,Day 7 RT SIV,"[3]; Experiment 3, 100 μM",0.795 OD
same,Day 10 RT SIV,"[3]; Experiment 3, 100 μM",2.286 OD
same,"SIV infection, result in words",[3],inhibit or prevent HIV-2 and SIV infection
same,HIV-1 Syncytia,[4]; Experiment 1,neg
same,HIV-1 Syncytia,[4]; Experiment 2,neg
